Results reported in patent US4100346A, “Certain 7(o-amino-methyl- or methylaminomethylphenyl- or cyclohexadienyl- or thienylacetamide)-3[1-carboxymethyl-(or ethyl- or propyl-)-tetrazol-5-ylthiomethyl]-3-cephem-4-carboxylic acids” (Bristol-Myers Company, priority 1976, dated 1978).
In brackets after ≈: the same amount, converted by molar mass. Like-named read-outs stand apart in the source and are kept apart here.

Assays:
Staphylococcus Aureus = assay: Effect of inoculum size on susceptibility of Staphylococcus aureus; type: cell-based; conditions: for MICB /MICA: MIC at 10^6 over MIC at 10^2 organisms; for MIC: Staphylococcus aureus, read-out: Minimum inhibitory concentration
[1] = target: β-lactamase Class I Type a, Enterobacter cloacae 214 (Enterobacter cloacae, UniProt P05364); type: biochemical
β-lactamase Class I Type a, Enterobacter cloacae 214, sequence (P05364 21-381): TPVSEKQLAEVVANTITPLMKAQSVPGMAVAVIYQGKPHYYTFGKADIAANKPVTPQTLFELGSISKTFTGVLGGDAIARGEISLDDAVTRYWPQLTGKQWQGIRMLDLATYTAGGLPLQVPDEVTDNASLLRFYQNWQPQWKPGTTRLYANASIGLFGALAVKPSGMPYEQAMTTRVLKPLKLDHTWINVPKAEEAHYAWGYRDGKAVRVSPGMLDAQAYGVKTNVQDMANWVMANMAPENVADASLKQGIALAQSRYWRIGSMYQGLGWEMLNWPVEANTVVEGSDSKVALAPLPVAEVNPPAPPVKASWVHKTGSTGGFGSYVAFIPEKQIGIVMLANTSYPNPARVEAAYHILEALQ
Method: (§1) Miscellaneous. Methods for determining bactericidal activity and susceptibility to cell-free β-lactamase were those previously used; Leitner et al., BL-S640, A Cephalosporin With a Broad Spectrum of Antibacterial Activity: Properties in vitro, Antimicrob. Agents Chemother.
(§2) Susceptibility to β-lactamase. Susceptibility to enzymic hydrolysis was assessed by determining relative rates of hydrolysis by cell-free preparations of various β-lactamases (Table 6).

[2] = target: β-lactamase Class I Type b, Escherichia coli 719 (Escherichia coli, UniProt P00811); type: biochemical
β-lactamase Class I Type b, Escherichia coli 719, sequence (P00811 20-377): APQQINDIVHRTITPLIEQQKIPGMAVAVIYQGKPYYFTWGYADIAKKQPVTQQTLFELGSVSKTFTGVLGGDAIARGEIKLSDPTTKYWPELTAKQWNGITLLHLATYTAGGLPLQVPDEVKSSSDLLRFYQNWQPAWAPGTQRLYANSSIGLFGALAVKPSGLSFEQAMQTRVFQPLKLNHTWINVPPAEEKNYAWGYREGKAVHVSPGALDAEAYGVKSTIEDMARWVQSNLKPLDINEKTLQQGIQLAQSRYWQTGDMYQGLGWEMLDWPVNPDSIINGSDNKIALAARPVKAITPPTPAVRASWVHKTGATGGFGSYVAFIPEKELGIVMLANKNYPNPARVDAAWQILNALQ
Method: as §1, §2

[3] = system: β-lactamase Class II Type a, Proteus mirabilis 1266; type: biochemical
Method: as §1, §2

[4] = target: T1, β-lactamase Class III Type a, Escherichia coli TEM (Escherichia coli, UniProt P62593); type: biochemical
T1 construct: cell-free preparations of various β-lactamases; endogenous in cells; host or cells: Escherichia coli strain TEM
T1 sequence (P62593 24-286 limits assumed): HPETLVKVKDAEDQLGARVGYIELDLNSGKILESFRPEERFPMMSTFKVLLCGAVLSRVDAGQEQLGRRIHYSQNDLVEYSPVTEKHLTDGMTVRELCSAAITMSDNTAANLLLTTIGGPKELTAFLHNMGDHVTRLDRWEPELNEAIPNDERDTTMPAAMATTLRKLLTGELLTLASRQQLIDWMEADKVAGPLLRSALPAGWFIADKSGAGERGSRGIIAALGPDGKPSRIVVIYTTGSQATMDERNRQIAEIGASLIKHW
Method: as §1, §2

[5] = system: β-lactamase Class IV Type a, Klebsiella pneumoniae 53; type: biochemical
Method: as §1, §2

[6] = system: β-lactamase Class IV Type b, Klebsiella pneumoniae 1169; type: biochemical
Method: as §1, §2

Citrobacter sp. = assay: Intramuscular treatment of systemically infected mice; type: in vivo; conditions: im, Citrobacter sp. strain 1, challenge 5×10^6 -2×10^7, treated 1 and 3.5 hours after infection, read-out: PD50 /treatment
Text: (§3) Treatment of Systemically Infected Mice. The procedures were identical with those published previously [Leitner et al., BL-S640, a Cephalosporin With a Broad Spectrum of Antibacterial Activity: Bioavailability and Therapeutic Properties in Rodents, Antimicrob. Agents Chemother. 7:306-310, (1975)], except that:
(§4) (a) the hog gastric mucin used in infections with Staphylococcus aureus No. 2 was purchased from American Laboratories, Inc., Omaha, Neb. (lot No. 154163) and b) that the medium used to suspend all other organisms contained 3% (rather than 4%) hog gastric mucin (type 1701W, Wilson Laboratories, Inc., Park Forest South, Ill.).
(§5) *Animals were treated twice; 1 and 3.5 hours after infection.

Escherichia coli [7] = assay: as above; type: in vivo; conditions: im, 3.5 h, read-out: PD50 /treatment
Text: as §3, §4, §5

Klebsiella pneumoniae [8] = assay: as above; type: in vivo; conditions: im, 3.5 h, read-out: PD50 /treatment
Text: as §3, §4, §5

Proteus mirabilis = assay: as above; type: in vivo; conditions: im, 3.5 h, read-out: PD50 /treatment
Text: as §3, §4, §5

Proteus morganii = assay: as above; type: in vivo; conditions: Morganella morganii, im, 3.5 h, read-out: PD50 /treatment
Text: as §3, §4, §5

Proteus rettgeri = assay: as above; type: in vivo; conditions: Providencia rettgeri, im, Proteus rettgeri strain 4, challenge 2×10^6 -3×10^6, treated 1 and 3.5 hours after infection, read-out: PD50 /treatment
Text: as §3, §4, §5

Proteus vulgaris = assay: as above; type: in vivo; conditions: im, 3.5 h, read-out: PD50 /treatment
Text: as §3, §4, §5

Providencia stuartii = assay: as above; type: in vivo; conditions: im, 3.5 h, read-out: PD50 /treatment
Text: as §3, §4, §5

[9] = Recovery in urine after intramuscular injection; conditions: rat, im, 10 mg/kg
Edwardsiella tarda = assay: Growth inhibitory activity, antibiotic dilution technique; conditions: read-out: Minimum inhibitory concentration
Arizona hinshawii = assay: as above; conditions: Salmonella enterica, read-out: Minimum inhibitory concentration
Escherichia coli [10] = assay: Effect of inoculum size on susceptibility of Enterobacteriaceae
Klebsiella pneumoniae [11] = assay: as above
[12] = Antibiotic concentration in blood after intramuscular injection; conditions: mouse, im

For `NCc1ccccc1CC(=O)N[C@@H]1C(=O)N2C(C(=O)O)=C(CSc3nnnn3CC(=O)O)CS[C@H]12` [Example 1], the “MICB /MICA” value (Staphylococcus Aureus; Lacking penicillinase, 3 strains) was 1.6, the “MICB /MICA” value (Staphylococcus Aureus; Penicillinase producer, 26 strains) was 1.5 and the MIC (Staphylococcus Aureus; Lacking penicillinase, 3 strains, B, inoculum of 10^6 organisms, geometric means) was 2.5 µg/mL (≈ 4.81 µM). The MIC (Staphylococcus Aureus; Penicillinase producer, 26 strains, A, Inoculum of 10^2 organisms, geometric means) was 3.8 µg/mL (≈ 7.31 µM), the MIC (Staphylococcus Aureus; Penicillinase producer, 26 strains, B, inoculum of 10^6 organisms, geometric means) was 5.7 µg/mL (≈ 11 µM) and the MIC (Staphylococcus Aureus) was 1.6 µg/mL (≈ 3.08 µM). The “effect of cell concentration on growth inhibitory activity” value (Staphylococcus Aureus; penicillinase-producing strains) was “slightly”, the “Relative Rate of Hydrolysis (benzylpenicillin = 100)” value (“Relative Rate of Hydrolysis” for short) [1] was 1100 and the “Relative Rate of Hydrolysis” value [2] was 190. The “Relative Rate of Hydrolysis” value [3] was under 1, the “Relative Rate of Hydrolysis” value [4] was 2 and the “Relative Rate of Hydrolysis” value [5] was 6. For the same compound, the “Relative Rate of Hydrolysis” value [6] was 30, the ED50 (Citrobacter sp.) was 3.5 mg/kg and the ED50 (Escherichia coli [7]; Escherichia coli strain 1, challenge 2×10^5 organisms, treated 1 and 3.5 hours after infection) was 0.37 mg/kg. The ED50 (Escherichia coli [7]; Escherichia coli strain 8, challenge 6×10^5 -4×10^6, treated 1 and 3.5 hours after infection) was 1.5 mg/kg, the ED50 (Escherichia coli [7]; Escherichia coli strain 9, challenge 7×10^3 -2×10^4, treated 1 and 3.5 hours after infection) was 2.2 mg/kg and the ED50 (Klebsiella pneumoniae [8]; Klebsiella pneumoniae strain 1, challenge 4×10^4 -5×10^4, treated 1 and 3.5 hours after infection) was 2 mg/kg. The ED50 (Klebsiella pneumoniae [8]; Klebsiella pneumoniae strain 7, challenge 9×10^2 -1×10^3, treated 1 and 3.5 hours after infection) was 22 mg/kg, the ED50 (Proteus mirabilis; Proteus mirabilis strain 1, challenge 7×10^6 -9×10^6, treated 1 and 3.5 hours after infection) was 1.4 mg/kg and the ED50 (Proteus mirabilis; Proteus mirabilis strain 5, challenge 9×10^5 -3×10^6, treated 1 and 3.5 hours after infection) was 0.62 mg/kg. The ED50 (Proteus mirabilis; Proteus mirabilis strain 8, challenge 6×10^5 -4×10^6, treated 1 and 3.5 hours after infection) was 0.59 mg/kg, the ED50 (Proteus morganii; Proteus morganii strain 1, challenge 1×10^5 -4×10^5, treated 1 and 3.5 hours after infection) was 19 mg/kg and the ED50 (Proteus morganii; Proteus morganii strain 2, challenge 2×10^6 -3×10^6, treated 1 and 3.5 hours after infection) was 39 mg/kg. The ED50 (Proteus rettgeri) was 2.4 mg/kg, the ED50 (Proteus vulgaris; Proteus vulgaris strain 1, challenge 1×10^6 -2×10^6, treated 1 and 3.5 hours after infection) was 1.8 mg/kg and the ED50 (Proteus vulgaris; Proteus vulgaris strain 3, challenge 4×10^5, treated 1 and 3.5 hours after infection) was 2.5 mg/kg. For the same compound, the ED50 (Providencia stuartii; Providencia stuartii strain 2, challenge 1×10^6 ×5×10^6, treated 1 and 3.5 hours after infection) was 5.9 mg/kg, the ED50 (Providencia stuartii; Providencia stuartii strain 3, challenge 2×10^7, treated 1 and 3.5 hours after infection) was 8 mg/kg and the dose excreted at 24 h [9] was 65%. It also gave an MIC (Edwardsiella tarda) of 0.13 µg/mL (≈ 0.25 µM), an MIC (Arizona hinshawii) of 0.13 µg/mL (≈ 0.25 µM) and an MIC (Escherichia coli [10]; read-out: Minimum Inhibitory Concentration, Escherichia coli strain 1, A, Inoculum of 10^2 organisms) of 0.5 µg/mL (≈ 0.962 µM). It also gave an MIC (Escherichia coli [10]; read-out: Minimum Inhibitory Concentration, Escherichia coli strain 1, B, Inoculum of 10^6 organisms) of 2 µg/mL (≈ 3.85 µM), an MIC (Escherichia coli [10]; read-out: Minimum Inhibitory Concentration, Escherichia coli strain 2, A, Inoculum of 10^2 organisms) of 4 µg/mL (≈ 7.7 µM) and an MIC (Escherichia coli [10]; read-out: Minimum Inhibitory Concentration, Escherichia coli strain 2, B, Inoculum of 10^6 organisms) of 32 µg/mL (≈ 61.6 µM). For the same compound, the MIC (Escherichia coli [10]; read-out: Minimum Inhibitory Concentration, Escherichia coli strain 3, A, Inoculum of 10^2 organisms) was 0.25 µg/mL (≈ 0.481 µM), the MIC (Escherichia coli [10]; read-out: Minimum Inhibitory Concentration, Escherichia coli strain 3, B, Inoculum of 10^6 organisms) was 1 µg/mL (≈ 1.92 µM) and the MIC (Escherichia coli [10]; read-out: Minimum Inhibitory Concentration, Escherichia coli strain 4, A, Inoculum of 10^2 organisms) was 0.5 µg/mL (≈ 0.962 µM). For the same compound, the MIC (Escherichia coli [10]; read-out: Minimum Inhibitory Concentration, Escherichia coli strain 4, B, Inoculum of 10^6 organisms) was 2 µg/mL (≈ 3.85 µM), the MIC (Escherichia coli [10]; read-out: Minimum Inhibitory Concentration, Escherichia coli strain 5, A, Inoculum of 10^2 organisms) was 1 µg/mL (≈ 1.92 µM) and the MIC (Escherichia coli [10]; read-out: Minimum Inhibitory Concentration, Escherichia coli strain 5, B, Inoculum of 10^6 organisms) was 2 µg/mL (≈ 3.85 µM). For the same compound, the MIC (Escherichia coli [10]; read-out: Minimum Inhibitory Concentration, Escherichia coli strain 6, A, Inoculum of 10^2 organisms) was 0.5 µg/mL (≈ 0.962 µM), the MIC (Escherichia coli [10]; read-out: Minimum Inhibitory Concentration, Escherichia coli strain 6, B, Inoculum of 10^6 organisms) was 2 µg/mL (≈ 3.85 µM) and the MIC (Escherichia coli [10]; read-out: Minimum Inhibitory Concentration, Escherichia coli strain 7, A, Inoculum of 10^2 organisms) was 0.25 µg/mL (≈ 0.481 µM). The MIC (Escherichia coli [10]; read-out: Minimum Inhibitory Concentration, Escherichia coli strain 7, B, Inoculum of 10^6 organisms) was 2 µg/mL (≈ 3.85 µM), the MIC (Klebsiella pneumoniae [11]; read-out: Minimum Inhibitory Concentration, Klebsiella pneumoniae strain 1, A, Inoculum of 10^2 organisms) was 0.5 µg/mL (≈ 0.962 µM) and the MIC (Klebsiella pneumoniae [11]; read-out: Minimum Inhibitory Concentration, Klebsiella pneumoniae strain 1, B, Inoculum of 10^6 organisms) was 1 µg/mL (≈ 1.92 µM). It also gave an MIC (Klebsiella pneumoniae [11]; read-out: Minimum Inhibitory Concentration, Klebsiella pneumoniae strain 2, A, Inoculum of 10^2 organisms) of 0.25 µg/mL (≈ 0.481 µM), an MIC (Klebsiella pneumoniae [11]; read-out: Minimum Inhibitory Concentration, Klebsiella pneumoniae strain 2, B, Inoculum of 10^6 organisms) of 2 µg/mL (≈ 3.85 µM) and an MIC (Klebsiella pneumoniae [11]; read-out: Minimum Inhibitory Concentration, Klebsiella pneumoniae strain 3, A, Inoculum of 10^2 organisms) of 0.5 µg/mL (≈ 0.962 µM). The MIC (Klebsiella pneumoniae [11]; read-out: Minimum Inhibitory Concentration, Klebsiella pneumoniae strain 3, B, Inoculum of 10^6 organisms) was 4 µg/mL (≈ 7.7 µM), the MIC (Klebsiella pneumoniae [11]; read-out: Minimum Inhibitory Concentration, Klebsiella pneumoniae strain 4, A, Inoculum of 10^2 organisms) was 0.5 µg/mL (≈ 0.962 µM) and the MIC (Klebsiella pneumoniae [11]; read-out: Minimum Inhibitory Concentration, Klebsiella pneumoniae strain 4, B, Inoculum of 10^6 organisms) was 4 µg/mL (≈ 7.7 µM). For the same compound, the MIC (Klebsiella pneumoniae [11]; read-out: Minimum Inhibitory Concentration, Klebsiella pneumoniae strain 5, A, Inoculum of 10^2 organisms) was 0.5 µg/mL (≈ 0.962 µM), the MIC (Klebsiella pneumoniae [11]; read-out: Minimum Inhibitory Concentration, Klebsiella pneumoniae strain 5, B, Inoculum of 10^6 organisms) was 2 µg/mL (≈ 3.85 µM) and the MIC (Klebsiella pneumoniae [11]; read-out: Minimum Inhibitory Concentration, Klebsiella pneumoniae strain 6, A, Inoculum of 10^2 organisms) was 0.25 µg/mL (≈ 0.481 µM). It also gave an MIC (Klebsiella pneumoniae [11]; read-out: Minimum Inhibitory Concentration, Klebsiella pneumoniae strain 6, B, Inoculum of 10^6 organisms) of 4 µg/mL (≈ 7.7 µM), a Tmax [12] of 15 min and a half-life [12] of 33 min. For the same compound, the Cmax ([12]; 20 mg/kg) was 36000 ng/mL.
